For data set [1], the system named is transepithelial passage of P31-43 in Caco-2 cells. Description: Transepithelial transport of promofluor-conjugated gliadin peptide P31-43 across Caco-2 monolayers (fluorometry). Format: cell-based, human. The settings on record: Caco-2 monolayer on transwell, A-B, 7 µg/mL in HBSS, 3 h, TEER >= 350 Ω/cm^2, fluorometry. As to the method: Transepithelial transport of immunogenic and toxic gliadin peptides were examined in Caco-2 cells 7–14 days after confluency. Caco-2 cells were seeded on semi-permeable transwell supports (ThinCert, culture surface: 33.6 mm², pore size: 0.4 µm) in 24-well plates (Greiner Bio One, Pleidelsheim, Germany). Prior to the transport experiments, the integrity of the cell monolayer was tested by measuring the transepithelial electric resistance (TEER) using a volt-ohm meter (Millipore, Schwalbach, Germany). Monolayers with insufficient TEER (<350 Ω/cm^2) were omitted. The synthesis and purification of promofluor-conjugated gliadin peptides were described elsewhere. Cells were either incubated with the immunogenic peptide P56-88 ([…]) or the toxic gliadin peptide P31-43 (LGQQQPFPPQQPY), 7 µg/mL each, in Hank’s balanced salt solution (HBSS) for 3 h. To investigate the role of TG2 on the transport of gliadin peptides, incubation was performed in the presence of ERW1041 and PX-12. After 3 h, basal and apical supernatants were collected, and the relative fluorescence of the basal compartment was quantified using a FLUOstar Optima (BMG Labtech) microplate reader. Background subtraction was performed against conditions, where no labeled peptides were used. Normalization was performed against conditions, where no inhibitors were used.
In general terms: Caco-2 cells form a polarised layer with tight junctions and transporters.

The test system of a further data set is T-cell stimulation. The note with it: cited from earlier work. An excerpt:
Even though our results underline the significance of TG2 inhibition, further research is needed to investigate the effects of those inhibitors on gliadin-induced inflammation. In recent studies, these inflammatory mechanisms were only partially mitigated by inhibition of TG2.

Data set [2] deals with gliadin peptide uptake (P31-43 and P57-68). The settings on record: cited from earlier work. An excerpt: Since TG2 is expressed on the surface of epithelial cells and plays a role in transcytosis, we aimed to investigate the effect of TG2 inhibitors on the epithelial uptake of gliadin peptides. First, we confirmed the results from Caputo et al. and Zimmermann et al. by showing that the translocation of P31-43, but not of P56-88, was inhibited by the endocytosis inhibitor MBCD [21, 37].

The next data set has as its system TG2 expression. Put plainly: Western blotting of TG2 protein expression in Caco-2 cells. Type of data set: cell-based, human. The note with it: IFN-γ 48 h; normalized to GAPDH; n = 4. How it is done:
[…] First, cells were washed two times with cold PBS, scraped off the plate and centrifuged (60 s at 14,100× g). The cell pellet was resuspended in RIPA lysis buffer supplemented with phenylmethylsulfonyl fluoride, protease inhibitor and sodium orthovanadate (1% each), incubated for 20 min on ice and centrifuged (20 min at 14,100 gat 4 °C) afterwards. Supernatant was collected and cell debris was discarded. Protein quantitation was performed using the Pierce BCA protein assay kit (Thermo Fisher Scientific). After denaturation in Laemmli buffer containing 2-mercaptoethanol for 5 min at 95 °C, 10 µg of the protein extract per lane were loaded on a 12% SDS-gel. Electrophoresis was done for 1 h at 40 mA. Protein transfer onto PVDF membrane (0.2 µm pore size) was done using a Transblot Turbo system (Bio-Rad Laboratories) for 30 min (25 V, 1 A). The membrane was blocked for 1 h with 5% non-fat dry milk in PBS + […]. The primary antibodies (anti-TG2 (1:500): CUB7402, Abcam, Cambridge, UK; anti-GAPDH (1:5000): MAB374, Merck Millipore, Darmstadt, Germany) were incubated at 4 °C in blocking buffer overnight. […] Image processing and quantitation were performed using a ChemiDoc XRS+ imager and Image Lab software (BioRad Laboratories, Feldkirchen, Germany).
For orientation: In western blotting, separated proteins are transferred to a membrane and probed.

Data set [3] concerns the target T1, TG2 in Caco-2 cell lysates (Homo sapiens, UniProt P21980).
T1 construct: endogenous in cells; host or cells: Caco-2 (differentiated; IFN-γ-stimulated in the monolayer assay)
T1 sequence (P21980 1-687): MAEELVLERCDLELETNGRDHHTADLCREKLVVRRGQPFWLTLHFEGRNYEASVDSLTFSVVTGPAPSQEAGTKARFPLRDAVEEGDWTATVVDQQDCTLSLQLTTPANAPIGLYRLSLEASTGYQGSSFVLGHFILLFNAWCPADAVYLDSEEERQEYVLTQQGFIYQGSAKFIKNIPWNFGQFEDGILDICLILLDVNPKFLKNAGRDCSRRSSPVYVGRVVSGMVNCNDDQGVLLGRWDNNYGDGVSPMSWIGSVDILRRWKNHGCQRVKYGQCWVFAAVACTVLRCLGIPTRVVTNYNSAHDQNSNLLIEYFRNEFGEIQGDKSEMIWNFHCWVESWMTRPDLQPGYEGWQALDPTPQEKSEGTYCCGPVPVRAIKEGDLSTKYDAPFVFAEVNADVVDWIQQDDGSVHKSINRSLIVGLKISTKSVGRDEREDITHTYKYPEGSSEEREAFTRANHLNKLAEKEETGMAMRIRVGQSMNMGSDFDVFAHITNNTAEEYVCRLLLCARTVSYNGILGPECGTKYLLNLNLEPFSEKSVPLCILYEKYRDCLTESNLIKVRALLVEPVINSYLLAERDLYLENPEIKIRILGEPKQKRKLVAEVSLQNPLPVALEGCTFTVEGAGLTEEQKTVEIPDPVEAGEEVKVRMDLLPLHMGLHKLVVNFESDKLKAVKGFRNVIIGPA
Put plainly: Transglutaminase activity in Caco-2 whole cell lysates (5BP cross-linking). The settings on record: Caco-2 cells treated with 500 IU/mL IFN-γ for 48 h; mean ± SD, n = 3. Format: biochemical. How it is done: The method to investigate TG2 activity from whole cell lysates was adapted from Lin et al.. In brief, 20 µg protein per cavity on the 96-well plate were incubated in 50 mM Tris, 1 mM EDTA, 5 mM calcium chloride (pH 7.5) buffer in the presence of 500 µM 5BP (5-biotinamidopentylamine, Thermo Fisher Scientific, Langenselbold, Germany) for the indicated time. After incubation, the plate was washed three times with PBS + 0.05% Tween. After blocking with 5% BSA in PBS for 1 h, the plate was incubated with 2 µg/mL streptavidin-Alexa Fluor 488 (Thermo Fisher Scientific) in 5% BSA. After 3 washing steps with PBS + 0.05% Tween, fluorometric evaluation was performed using a Clariostar Plus (BMG Labtech) microplate reader (no well scan mode, excitation 488 nm, emission 535 nm, fixed gain: 2000).

The target of data set [4] is T2, extracellular TG2 on Caco-2 cells (Homo sapiens, UniProt P21980).
T2 construct: endogenous in cells; host or cells: Caco-2 (differentiated; IFN-γ-stimulated in the monolayer assay)
T2 sequence (P21980 1-687): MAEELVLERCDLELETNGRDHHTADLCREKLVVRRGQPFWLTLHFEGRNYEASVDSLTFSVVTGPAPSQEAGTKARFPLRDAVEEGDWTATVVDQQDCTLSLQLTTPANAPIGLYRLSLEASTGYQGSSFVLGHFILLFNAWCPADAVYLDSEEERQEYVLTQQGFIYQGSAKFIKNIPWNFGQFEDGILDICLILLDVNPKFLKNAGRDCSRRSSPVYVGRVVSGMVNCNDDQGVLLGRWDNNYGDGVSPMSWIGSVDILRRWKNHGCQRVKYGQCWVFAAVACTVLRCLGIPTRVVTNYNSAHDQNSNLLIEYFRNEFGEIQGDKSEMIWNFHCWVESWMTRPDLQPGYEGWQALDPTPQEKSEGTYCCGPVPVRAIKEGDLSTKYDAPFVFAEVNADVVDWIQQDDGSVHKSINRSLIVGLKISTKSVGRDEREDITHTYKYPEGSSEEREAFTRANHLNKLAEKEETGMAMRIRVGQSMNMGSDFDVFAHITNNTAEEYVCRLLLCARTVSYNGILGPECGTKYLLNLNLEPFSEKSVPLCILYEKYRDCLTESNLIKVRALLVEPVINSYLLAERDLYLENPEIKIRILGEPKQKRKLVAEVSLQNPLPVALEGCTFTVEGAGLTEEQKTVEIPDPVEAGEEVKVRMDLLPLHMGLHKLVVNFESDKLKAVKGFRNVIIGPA
Description: Extracellular TG2 activity on confluent Caco-2 cell monolayers (5BP cross-linking). Type of data set: cell-based. The note with it: 1000 IU/mL IFN-γ, 48 h. How it is done:
The method was adapted from Yi et al.. To induce TG2 expression, Caco-2 cells were stimulated with IFN-γ 1000 IU/mL for 48 h. Then, cells were washed three times with warm PBS and incubated with the substrate 5BP for 3 h at 37 °C in 50 mM Tris and 1 mM EDTA (pH 7.5). The substances ERW1041, PX-12 and DTT were added to this solution when indicated. After incubation, cells were washed three times with PBS, fixed with 4% paraformaldehyde for 10 min and blocked with 5% BSA in PBS at 4 °C overnight. Then, cells were incubated at room temperature with streptavidin-Alexa488 (Thermo Scientific, 4 µg/mL) in 5% BSA in the dark for 1 h, followed by three washes with PBS. Fluorometric quantitation was conducted using a FLUOstar Optima microplate reader (BMG Labtech, filter settings: excitation 485 nm, emission 525 nm). Manual gain adjustment was performed, setting the well with the most intense signal as 95%. In all experiments, data were background subtracted against a control without 5BP substrate.

The source of these data is publication PMC10002517, “Inhibition of Transglutaminase 2 as a Therapeutic Strategy in Celiac Disease—In Vitro Studies in Intestinal Cells and Duodenal Biopsies” (International Journal of Molecular Sciences, 2023).

In the case of LGQQQPFPPQQPY [P31-43], in data set [1], the “translocation from the apical to the basal compartment” value is reported as “detected in the basal compartment”. On to `NCCSSCCN` [cystamine], for which, in the data set with T-cell stimulation, the “CD patients in whom T-cell stimulation was prevented” value is reported as 50%. Further, in data set [2], the “effect on gliadin peptide uptake (P31-43 and P57-68)” value is recorded as “did not show an effect”. In the case of “IFN-γ: key cytokine of the Th1-driven inflammation in CD, recognized inducer of TG2 expression”, the “TG2 expression on the protein level” value with TG2 expression is “almost sevenfold increase”.

B1: IFN-γ: key cytokine of the Th1-driven inflammation in CD, recognized inducer of TG2 expression (protein, UniProt P01579 24-161, looked up)
Interferon gamma: QDPYVKEAENLKKYFNAGHSDVADNGTLFLGILKNWKEESDRKIMQSQIVSFYFKLFKNFKDDQSIQKSVETIKEDMNVKFFNSNKKKRDDFEKLTNYSVTDLNVQRKAIHELIQVMAELSPAAKTGKRKRSQMLFRG
In the case of B1, in data set [3], the “TG2 activity in Caco-2 cell lysates” value amounted to 760 ± 259%. In addition, the “increase of extracellular TG2 activity after IFN-γ stimulation” value in data set [4] is “about 4 times”.
